The assay addresses serotonin 5-HT2C receptor (VSV type isoform) stably expressed in CHO cell (Homo sapiens, UniProt P28335, I156V/I160V/N158S). Put plainly: cell-based. The format is cell-based. Particulars: for Emax: CHO, read-out: ratio relative to maximum response by 5-HT (1 μM).

The source of these data is US8329687B2, “Pyridooxazepine derivative and use thereof” (Takeda Pharmaceutical Company Limited, priority 2007, dated 2012).

Counter-ions that a name gives are not always drawn.

Sequence of serotonin 5-HT2C receptor (VSV type isoform) stably expressed in CHO cell (P28335 33-458 I156V/N158S/I160V limits assumed): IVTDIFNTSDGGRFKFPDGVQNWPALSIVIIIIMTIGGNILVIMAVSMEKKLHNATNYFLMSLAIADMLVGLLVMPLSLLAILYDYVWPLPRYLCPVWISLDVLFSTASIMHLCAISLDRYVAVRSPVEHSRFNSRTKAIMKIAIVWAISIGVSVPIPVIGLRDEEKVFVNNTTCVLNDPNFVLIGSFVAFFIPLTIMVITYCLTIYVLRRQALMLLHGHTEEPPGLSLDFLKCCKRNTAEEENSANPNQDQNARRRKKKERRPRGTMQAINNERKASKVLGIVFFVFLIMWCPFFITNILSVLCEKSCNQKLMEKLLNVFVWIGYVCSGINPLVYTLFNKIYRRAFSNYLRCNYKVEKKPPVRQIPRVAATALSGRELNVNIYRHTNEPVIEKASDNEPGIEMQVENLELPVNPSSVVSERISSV

Turning to `CC(C)Sc1ccc2c(n1)OCCNC2` [Example 37, 8-(isopropylthio)-2,3,4,5-tetrahydropyrido[3,2-f][1,4]oxazepine hydrochloride], the Emax came to 94.5%. For `CC(C)(C)Oc1ccc2c(n1)OCCNC2` [Example 1, 8-tert-butoxy-2,3,4,5-tetrahydropyrido[3,2-f][1,4]oxazepine], the Emax turned out to be 98.6%. As for `FC1(F)CCC(Oc2ccc3c(n2)OCCNC3)CC1` [Example 23, 8-[(4,4-difluorocyclohexyl)oxy]-2,3,4,5-tetrahydropyrido[3,2-f][1,4]oxazepine hydrochloride], the Emax came out at 83.8%.

For `CC(C)COc1ccc2c(n1)OCCNC2` [Example 3, 8-isobutoxy-2,3,4,5-tetrahydropyrido[3,2-f][1,4]oxazepine hydrochloride], the Emax came to 101%. As for `CCOc1ccc2c(n1)OCCNC2` [Example 13, 8-ethoxy-2,3,4,5-tetrahydropyrido[3,2-f][1,4]oxazepine hydrochloride], the Emax amounted to 97.4%. Take `CC[C@H](C)Oc1ccc2c(n1)OCCNC2` [Example 26, 8-{[(1S)-1-methylpropyl]oxy}-2,3,4,5-tetrahydropyrido[3,2-f][1,4]oxazepine hydrochloride]: the Emax turned out to be 97.6%. Consider `CC[C@@H](C)Oc1ccc2c(n1)OCCNC2` [Example 27, 8-{[(1R)-1-methylpropyl]oxy}-2,3,4,5-tetrahydropyrido[3,2-f][1,4]oxazepine hydrochloride], for which the Emax was found to be 99.8%.

`CC(C)[C@@H](C)Oc1ccc2c(n1)OCCNC2` [Example 25, 8-{[(1R)-1,2-dimethylpropyl]oxy}-2,3,4,5-tetrahydropyrido[3,2-f][1,4]oxazepine hydrochloride]: the Emax is 98.6%. As for `CC(Oc1ccc2c(n1)OCCNC2)C1CC1.CC(Oc1ccc2c(n1)OCCNC2)C1CC1.O=C(O)CCC(=O)O` (single isomer, unassigned; (-)) [Example 35, (−)-8-(1-cyclopropylethoxy)-2,3,4,5-tetrahydropyrido[3,2-f][1,4]oxazepine 0.5 succinate], the “ratio relative to maximum response by 5-HT (1 μM)” value (“ratio relative to maximum response” below) came to 93.7. Same read-out and setting: under `CC(Oc1ccc2c(n1)OCCNC2)C1CC1.CC(Oc1ccc2c(n1)OCCNC2)C1CC1.O=C(O)CCC(=O)O` (centres unmarked) [Example 16, 8-(1-cyclopropylethoxy)-2,3,4,5-tetrahydropyrido[3,2-f][1,4]oxazepine 0.5 succinate] stands 98.8. As to `CC(C)Oc1ccc2c(n1)OCCNC2.CC(C)Oc1ccc2c(n1)OCCNC2.O=C(O)CCC(=O)O` [Example 5, 8-isopropoxy-2,3,4,5-tetrahydropyrido[3,2-f][1,4]oxazepine 0.5 succinate], the “ratio relative to maximum response” value is 97.7.

As for `c1ccc(Oc2ccc3c(n2)OCCNC3)cc1` [Example 28, 8-phenoxy-2,3,4,5-tetrahydropyrido[3,2-f][1,4]oxazepine hydrochloride], the Emax came out at 91.2%. Take `CC(Oc1ccc2c(n1)OCCNC2)C1CC1.CC(Oc1ccc2c(n1)OCCNC2)C1CC1.O=C(O)CCC(=O)O` (single isomer, unassigned; (+)) [Example 36, (+)-8-(1-cyclopropylethoxy)-2,3,4,5-tetrahydropyrido[3,2-f][1,4]oxazepine 0.5 succinate]: the “ratio relative to maximum response” value amounted to 104.7. `CC(C)[C@H](C)Oc1ccc2c(n1)OCCNC2` [Example 24, 8-{[(1S)-1,2-dimethylpropyl]oxy}-2,3,4,5-tetrahydropyrido[3,2-f][1,4]oxazepine hydrochloride]: the Emax is 94.7%.
